These are literature values, as cited in patent US20020040034A1, “Methods for treating allergic asthma using descarboethoxyloratadine” (priority 1997, published 2002).

One data set deals with allergic bronchospasm. As to conditions: milligram by milligram basis.
Data set [1] concerns melanoma and fibrosarcoma tumors.

Structures are written as SMILES.

Consider `CCOC(=O)N1CCC(=C2c3ccc(Cl)cc3CCc3cccnc32)CC1` [Loratadine], for which the “Inhibition of allergic bronchospasm, potency compared with terfenadine” value in the data set on allergic bronchospasm is “four times more potent than terfenadine”. Moreover, the “Association with tumor growth” value in data set [1] is “associated with growth of both melanoma and fibrosarcoma tumors”.

Regarding `COc1ccc(CCN2CCC(Nc3nc4ccccc4n3Cc3ccc(F)cc3)CC2)cc1` [astemizole], the “Association with tumor growth” value in data set [1] was “associated with growth of both melanoma and fibrosarcoma tumors”.
